The record followed here is patent US20160166700A1, “METHOD FOR AMELIORATING LIVER FIBROSIS BY USING NANOPARTICLE CONTAINING TYROSINE KINASE INHIBITOR” (National Tsing Hua University, priority 2014, published 2016).

Data set [1] in a line: Pharmacokinetics of injected C6-loaded nanoparticle composition (C6 in blood). Conditions: 0.5 to 1 hour after injection; 0.1 mg/kg tail intravenous injection; FIG. 6. Format: in vivo, C3H mice.
Experimental: C6 was injected to C3H mice with or without the nanoparticle encapsulation at a dosage of 0.1 mg/kg via tail intravenous injection. 40 μL of blood from the tail artery of the mice were collected and mixed with ethylenediaminetetraacetic acid (EDTA) at different period of time. Fluorescence intensity was measured under an excitation wavelength of 485 nm and an emission wavelength of 538 nm. Standard curves of the C6 or C6-loaded PLGA nanoparticle composition in blood were used to calculate the content of C6 in mice.
Data set [2] concerns collagen I. Nature of the data set: Extracellular matrix (collagen I) content in fibrotic liver of treated mice. It counts as in vivo. The note with it: FIG. 9C. An excerpt: Collagen is the most abundant protein in not only the human body but also the extracellular matrix.
Data set [3] concerns hepatic stellate cell (HSC). Format: cell-based. The note with it: HSCs; MTT after 48 or 72 hours; FIG. 5B. The method, then: The HSC was purchased from ScienCell Research Laboratories (#5300, San Diego, Calif., USA) and the HUVEC was obtained from Bioresource Collection and Research Center, Food Industry Research and Development Institute (BCRC number: H-UV001, Hsinchu, Taiwan). Firstly, HUVECs and HSCs were planted in 96-well plates at a density of 2,000 cells/well and were left overnight for adhesion. Then, different forms of sorafenib or drug carriers were added. After 48 or 72 hours, 3-(4, 5-cimethylthiazol-2-yl)-2, 5-diphenyl tetrazolium bromide (MTT), which dissolved in PBS, was added to each well and the cells were further incubated at 37° C. for 3 hours. Finally, to each well, 50 μL of DMSO were added and a spectrophotometer was used to analyze the result at a wavelength of 570 nm. […] In addition, cells without any treatment served as Vehicle Group, while cells treated with free sorafenib served as Positive Control Group. […] Meanwhile, according to the results of cell viability of the cells treated with the PEG-PLGA particle alone (Negative Control Group 1) and PEG-PLGA/PLGA nanoparticle composition alone (Negative Control Group 2), it is confirmed that the PEG-PLGA and PEG-PLGA/PLGA co-polymer are non-cytotoxic and will not result in death of the target cells.

Data set [4] relates to α-smooth muscle actin (α-SMA). Nature of the data set: α-SMA expression (western blotting) as indicator for HSC activation in treated mice. Conditions: FIG. 9A. Format: in vivo. An excerpt:
The expression of α-smooth muscle actin (α-SMA) is an indicator for HSC activation.
On the technique in general: In western blotting, separated proteins are transferred to a membrane and probed.

SMILES strings stand for the structures.

As for `CCN(CC)c1ccc2cc(-c3nc4ccccc4s3)c(=O)oc2c1` [C6 alone, Coumarin 6], the “C6 concentration in blood” value in data set [1] is listed as “about 1%”.

Consider `CNC(=O)c1cc(Oc2ccc(NC(=O)Nc3ccc(Cl)c(C(F)(F)F)c3)cc2)ccn1` [free sorafenib, sorafenib], for which, in data set [2], the “extracellular matrix in fluorescent microscopic image (illuminated regions)” value is listed as “not noteworthy”. In data set [3], the cell viability entry was “about 75%”. Also, in data set [4], the “α-SMA expression (western blotting)” value is “suppressed”.
